“Also recorded” adds a separate entry of the source.

This is an account of results in patent publication US20260240792A1, “COMPOSITIONS FOR TREATING 5-HT2 CONDITIONS AND METHODS OF USING THE SAME” (Board of Supervisors of Louisiana State University and …, priority 2022, published 2026).

Data set [1] deals with rabbits. Briefly: Topical ocular dosing in rabbits: observation of CNS, systemic, ocular and behavioral effects, ocular tolerability. The format is in vivo, rabbit. The settings on record: 0.01%. The procedure: Apparent Ocular Irritability • b. Induction of Inflammation • c. Reduction of Corneal Barrier Integrity • d. Dry Eye or Excessive Tearing • e. Induction of Neovascularization • f. Induction of Scleral Reddening
Parameters Assessed during 2 hour Observation Window (see, for example, FIG. 1):
Two studies were performed to determine at what dose between 0.01% and 0.1% were behavioral and/or systemic effects observed. 50 μL doses at 0.01%, 0.05%, and 0.075% per eye applied and assessments were made as indicated herein.
The application of most topical eye drops requires repeatedly dosing up to 9 times per day in order to maintain efficacy across the course of waking hours and have efficacious levels available during sleeping hours. The effects of repeated ocular dosing of R-DOI were assessed in a similar manner as described herein, with the exception that doses of 0.01% or 0.05% were applied repeatedly as outlined herein:
Animals from the acute dosing were continued through the repeated dosing study. Animals were dosed at the indicated concentration 2 times on day 1 and then dosed 4 times per day for 3 subsequent days. Doses were administered at 50 μl per eye into both eyes of the animal.
Rabbits were assessed for clinically clear eyes by slit lamp ophthalmic scoring. All eyes of all rabbits were normal.
Following balancing animals were treated with 50 μL of Control ophthalmic BSS/0.5% CMC or 0.01% Compound 1 in ophthalmic BSS/0.5% CMC.
Any behavioral changes were continuously monitored over the next 2.5 hours (FIG. 3).
We can determine if a single dose of the ocular composition of 0.01% R-DOI with 0.5% carboxymethylcellulose in ophthalmic BSS: • 1. Reproduced previous findings that R-DOI had IOP depressing effects. • 2. Produced any readily observable behavioral effects. • 3. Was tolerated by the eye without adverse ocular effects, including absence of: • a. Apparent Ocular Irritability • b. Induction of Inflammation • c. Dry Eye or Excessive Tearing • d. Induction of Scleral Reddening • 4. Reduced IOP • 5. Maintained Reduction in IOP • 6. Increased Tear Film Production
(§1) • Rabbits were assessed for clinically clear eyes by slit lamp ophthalmic scoring. All eyes of all rabbits were normal. • Each eye of each rabbit was then assessed for initial IOP by tonometer. • Each eye of each rabbit was assessed for tear film production by Schirmer's Tear Flo Strips at a 30 second interval of analysis. Tear measures were evaluated by a digital caliper to determine mm of tears collected. • Rabbits were sorted into two groups attempting to balance IOP numbers (one higher, one lower animal per group). • Following animals were treated with 50 μL of Control ophthalmic BSS/0.5% CMC or 0.01% R-DOI HCl in ophthalmic BSS/0.5% CMC. • Any apparent behavioral changes were continuously monitored over the next 2.5 hours. • IOP determinations were made at 30 minutes, 1 hour, 2 hours and 3 hours, 5 hours, 7 hours and 24 hours-eyes were examined closely for any adverse effects during these IOP measures. • 7 hours post treatment when IOP returned to control levels tear film production was assessed (see, for example, FIG. 9).

In data set [2] the test system is rabbits. Briefly: Intraocular pressure (IOP) after topical ocular dosing in rabbits. The format is in vivo, rabbit. How it is done:
The IOP was assessed as a component of clinical outcomes for the animals in the studies described herein. The table below represents the effect of R-DOI on IOP 2 hours after dosing with the indicated concentration of R-DOI. Eyes were individually assessed and are indicated as IOP for the right (OD) or left (OS) eye.
Each eye of each rabbit was then assessed for initial IOP by tonometer.
IOP determinations were made at 30 minutes, 1 hour, 1.5 hours and 2.5 hours-eyes were examined closely for any adverse effects during these IOP measures.
(§2) 3 days post treatment at the same time initial measures were made, IOP and tear film production were re-assessed to examine if effects were sustained post 1 treatment.
The IOP was assessed via a TonoVet rebound Tonometer. The tables herein (see, for example, FIG. 4) represent the effect of Compound 1 on IOP at time intervals within the first 2.5 hours after dosing with 0.01% Compound 1 in BSS with 0.5% CMC. Eyes were individually assessed and are indicated as IOP for the right (OD) or left (OS) eye. 3 days post treatment eyes were reassessed for IOP changes to see if the effects of treatment lasted over a prolonged period.
as §1
The IOP was assessed via a TonoVet rebound Tonometer. The tables herein (see, for example, FIGS. 10-11) represents the effect of R-DOI on IOP at the defined time intervals Eyes were individually assessed and are indicated as IOP for the right (OD) or left (OS) eye.

In data set [3] the test system is rabbits. As to the kind of experiment: Tear film production by Schirmer's Tear Flo Strips in rabbits. The format is in vivo, rabbit. The procedure:
Each eye of each rabbit was assessed for tear film production by Schirmer's Tear Flo Strips at a 30 second interval of analysis. Tear measures were evaluated by a digital caliper to determine mm of tears collected.
as §2
Effects of Compound 1 on Tear Production: Current IOP lowering glaucoma drugs eventually have effects on tear production resulting in dry eye conditions. Further, there are additional associations between dry eye and glaucoma, with co-incidence of the two conditions quite common. […] Selective 5-HT agonists/antagonists can reverse symptoms of dry eye-a very large ophthalmic market. The effects of Compound 1 on tear film production (see, for example, FIG. 6 panels A-D) were therefore assessed by a Schirmer's Tear Flo strip and measured using a digital micrometer caliper.
as §1
Effects of R-DOI on Tear Production: Current IOP lowering glaucoma drugs eventually have effects on tear production resulting in dry eye conditions. Further, there are additional associations between dry eye and glaucoma, with co-incidence of the two conditions common. […] Selective 5-HT agonists/antagonists can reverse symptoms of dry eye-a very large ophthalmic market. The effects of R-DOI on tear film production were therefore assessed by a Schirmer's Tear Flo strip and measured using a digital micrometer caliper.

Data set [4] in a line: Solubility in ophthalmic eye drop (BSS, 0.5% CMC). The format is physicochemical. The conditions noted are these: 0.1% (5 mg/5 mL) in BSS with 0.5% CMC, pH 7.0. How it is done:
Non-Limiting, Exemplary Findings Discussed within: • The NCE Compound 1 was formulated within an ophthalmic eye drop with BSS and 0.5% carboxymethylcellulose (CMC) at percentages of 0.1% (5 mg/5 ml) and lower with a pH of 7.0.
• The R-DOI HCl was formulated within an ophthalmic eye drop with BSS and 0.5% carboxymethylcellulose (CMC) at percentages of 0.1% (5 mg/5 mL) and lower with a pH of 7.0.

Data set [5] deals with C6 glioma cells. The settings on record: cocktail of TNF-α and INF-γ, read-out: IC50 for block of LPS and cytokine stimulated nitrite accumulation; cited from earlier work.
For data set [6], the system named is TGF-Induced SMAD-mediated signaling. Briefly: TGF-β induced SMAD-mediated signaling, dual luciferase reporters. The format is cell-based. On the technique in general: In a reporter assay the amount or activity of a reporter protein is the signal.
Data set [7] has as its system Normal Human Fibroblasts. As to the kind of experiment: TGF-β transformation of normal human fibroblasts to myofibroblasts. The format is cell-based. The settings on record: TGF-β treated human fibroblasts.
Data set [8] concerns the target 5-HT2A receptors (Homo sapiens, UniProt P28223). The settings on record: cited from earlier work.

Sequence of 5-HT2A receptors (P28223 whole entry): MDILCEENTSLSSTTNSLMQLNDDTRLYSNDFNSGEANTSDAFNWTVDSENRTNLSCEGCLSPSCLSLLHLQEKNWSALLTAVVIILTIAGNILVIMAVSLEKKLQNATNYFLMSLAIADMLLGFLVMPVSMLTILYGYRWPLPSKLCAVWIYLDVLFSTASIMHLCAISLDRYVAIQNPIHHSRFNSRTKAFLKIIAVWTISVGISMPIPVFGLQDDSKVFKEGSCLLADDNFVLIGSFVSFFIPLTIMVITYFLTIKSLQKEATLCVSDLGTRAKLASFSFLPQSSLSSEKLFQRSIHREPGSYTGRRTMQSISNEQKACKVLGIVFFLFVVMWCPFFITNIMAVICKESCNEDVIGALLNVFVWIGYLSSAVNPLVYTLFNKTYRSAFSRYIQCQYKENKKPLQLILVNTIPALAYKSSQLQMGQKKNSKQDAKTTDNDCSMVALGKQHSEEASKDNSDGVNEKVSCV

With `COc1cc(CC(C)C)c(OC)cc1CCN` [Compound 1], the “adverse events (ocular, systemic, behavioral or otherwise)” value in data set [1] (50 μL per eye, both eyes, single dose) is “No readily apparent adverse events; also recorded: No observable changes; also recorded: no adverse or abnormal events observed”. In data set [1] (acute single dosing), the “acute ocular toxicity, irritability or adverse ocular reactions” value is given as “did not exhibit any acute ocular toxicity, irritability or adverse ocular reactions; also recorded: did not display any signs of ocular irritability”. The “period for which decreased intraocular pressure was sustained post administration” value in data set [2] (0.01% single dose, non-diseased eye model) is reported as “at least 3 days”. The “IOP across the 2.5 hour observation window” value in data set [2] (0.01% single dose, 30 minutes, 1 hour, 1.5 hours, 2.5 hours) is reported as “decreased IOP at all points across the 2.5 hour observation window”. Besides, the “Return to Baseline IOP” value in data set [2] (post single dose administration of 0.01%) is on record as “approximately 12 days”. Moreover, the “effect on intraocular pressure” value in data set [2] (single topical ocular dose) is recorded as “decreased intraocular pressure with a single dose”. The “average increase in tear film production” value in data set [3] (0.01% single dose, 2.5 h post treatment) is given as 3.4 mm. Besides, in data set [3] (0.01% single dose, 3 days post treatment), the “average increase of tear film” value is recorded as “approximately 1.9 mm”. For the same molecule, the “tear production as measured by Schirmer's test” value in data set [3] (topical ocular dose) was “increased tear production; also recorded: significant increase in tear production”. Besides, the “Solubility of the compound” value in data set [4] is recorded as “good with no remaining precipitates”.
What is called IC50 is the concentration that gives 50% inhibition. For `COc1cc(CC(C)N)c(OC)cc1I` (centres unmarked) [DOI, 2,5-Dimethoxy-4-iodoamphetamine], the IC50 in data set [5] was 8 ± 3 nM. For the same molecule, the “TGF-Induced SMAD-mediated signaling” value in data set [6] was “Reduces TGF-Induced SMAD-mediated signaling”. In addition, the “Transformation into Myofibroblasts” value in data set [7] is reported as “Prevents Transformation into Myofibroblasts”.
In the case of `O=C(c1ccc(F)cc1)C1CCN(CCn2c(=O)[nH]c3ccccc3c2=O)CC1` [ketanserin], in data set [8], the “selectivity for 5-HT2A receptors over 5-HT2C receptors” value was ~ 20 fold.
